From US12629371B2, “Compositions and methods for inhibiting kinases” (Inhibikase Therapeutics, Inc., priority 2016, dated 2026)
Like-named read-outs stand apart in the source and are kept apart here. Blank lines part the entries; values can stand above or below the compound they belong to.

Tests used:
[1] = molecular target: PDGFRb (Homo sapiens, UniProt P09619); assay: Inhibition profile at 500 nM: PDGFRb; type: biochemical; conditions: 500 nM test compound, read-out: Percent inhibition PDGFRb
Experimental: (§1) Then enzyme substrate is added as 10 μl of 2.5×FAM-labeled peptide+ATP solution to each well of the 384-well assay plate The reaction is allowed to proceed at 28° C. and quenched with the addition of 25 μl of stop buffer. The release of fluorescent FAM is quantitated as Percent inhibition=(max−conversion)/(max−min)*100.sp; “max” stands for DMSO control; “min” stands for low control. Convert conversion values to inhibition values. Percent inhibition=(max−conversion)/(max−min)*100. “max” stands for DMSO control; “min” stands for low control.

[2] = molecular target: PDGFRa (Homo sapiens, UniProt P16234); assay: Inhibition profile at 500 nM: PDGFRa; type: biochemical; conditions: 500 nM test compound, read-out: Percent inhibition PDGFRa
Experimental: as §1

[3] = molecular target: LYNA (Homo sapiens, UniProt P07948); assay: Inhibition profile at 500 nM: LYNA; type: biochemical; conditions: 500 nM test compound, read-out: Percent inhibition LYNA
Experimental: as §1

[4] = molecular target: FGR (Homo sapiens, UniProt P09769); assay: Inhibition profile at 500 nM: FGR; type: biochemical; conditions: 500 nM test compound, read-out: Percent inhibition FGR
Experimental: as §1

[5] = molecular target: FES (Homo sapiens, UniProt P07332); assay: Inhibition profile at 500 nM: FES; type: biochemical; conditions: 500 nM test compound, read-out: Percent inhibition FES
Experimental: as §1

[6] = molecular target: SRC (Homo sapiens, UniProt P12931); assay: Inhibition profile at 500 nM: SRC; type: biochemical; conditions: 500 nM test compound, read-out: Percent inhibition SRC
Experimental: as §1

[7] = molecular target: ARG/Abl2 (Homo sapiens, UniProt P42684); assay: Inhibition profile at 500 nM: ARG/Abl2; type: biochemical; conditions: 500 nM test compound
Experimental: as §1

[8] = molecular target: ABL (Homo sapiens, UniProt P00519); assay: Inhibition profile at 500 nM: ABL / Abl1; type: biochemical; conditions: 500 nM test compound; Table 1; read-out: Percent inhibition ABL
Experimental: as §1

[9] = molecular target: FLT3 (Homo sapiens, UniProt P36888); assay: Inhibition profile at 500 nM: FLT3; type: biochemical; conditions: 500 nM test compound, read-out: Percent inhibition FLT3
Experimental: as §1

[10] = molecular target: JNK2 (Homo sapiens, UniProt P45984); assay: Inhibition profile at 500 nM: JNK2; type: biochemical; conditions: 500 nM test compound, read-out: Percent inhibition JNK2
Experimental: as §1

[11] = molecular target: FYN (Homo sapiens, UniProt P06241); assay: Inhibition profile at 500 nM: FYN; type: biochemical; conditions: 500 nM test compound, read-out: Percent inhibition FYN
Experimental: as §1

[12] = molecular target: LCK (Homo sapiens, UniProt P06239); assay: Inhibition profile at 500 nM: LCK; type: biochemical; conditions: 500 nM test compound, read-out: Percent inhibition LCK
Experimental: as §1

[13] = molecular target: KIT (Homo sapiens, UniProt P10721); assay: Inhibition profile at 500 nM: KIT; type: biochemical; conditions: 500 nM test compound; Table 1; read-out: Percent inhibition KIT
Experimental: as §1

[14] = Serum protein binding; type: in vitro ADME; conditions: rat
[15] = Pharmacokinetic parameters in Sprague-Dawley rats; design: AUC(0-t): concentration or dose not given beside the values; conditions: rat, in vivo
Experimental: Various pharmacokinetic parameters of the compounds described herein were measured in Sprague-Dawley rats.

[16] = test system: mice treated with MPTP; assay: Mouse MPTP neurotoxicity model; type: in vivo; conditions: for dopamine levels (protection of dopamine-secreting neurons): HPLC-ECD, FIG. 4; for pole test latency: day 14, FIG. 3, control about 5 seconds, MPTP about 30
Experimental: Certain compounds of the present invention were evaluated using the MPTP neurotoxicity model. MPTP causes oxidative stress, which in turn causes c-Abl1 and/or c-Abl2 phosphorylation in the SNpc of mice treated with MPTP. MPTP administration according to this model produces a reliable, irreversible loss of DA neurons 7 days after the last injection, similar to that observed in PD. MPTP causes greater loss of DA neurons in SNpc and degeneration of DA nerve terminals in the caudate putamen. Many of the cell death signaling events observed in PD postmortem tissue are present in the MPTP model including oxidative stress, nitrosative stress, c-Abl activation, Parkin inactivation and PARIS and AIMP2 elevation and PARP activation. […] Because the model is relatively rapid, this model was used to assess dosing for future studies, and as a preliminary measure of efficacy.
The study design is depicted in FIG. 1. […] Wild type mice (n=5 per group) were divided into 4 treatment groups as follows: saline, MPTP, Drug and MPTP+Drug. Saline and MPTP groups were pre-treated with drug vehicle (unbuffered water) (20 animals total). Drug and MPTP+Drug groups received the test compounds for 6 days administered by oral gavage daily. On the seventh day, the saline and Drug groups received four intra-peritoneal (i.p.) injections of saline at 2 h intervals. The MPTP and MPTP+Drug groups received four intraperitoneal (i.p.) injections of MPTP·HCl (20 mg/kg free base) at 2 hr intervals. After the MPTP injection day, mice were treated for an additional 6 days with saline or an ATK inhibitor of the present invention. Mice in the saline and MPTP only groups received saline vehicle while the Drug and MPTP+Drug groups received an additional week of drug treatment. On the 14th day, mice were given a pole test, then sacrificed. Brain samples were processed for analysis of biogenic amine concentrations, including dopamine (DA), by high-performance liquid chromatography with electrochemical detection (HPLC-ECD). Loss of DA and its metabolites in the striatum is a consistently reliable indication of loss of DA neurons in the SNpc.

[17] = Human liver microsome stability; type: in vitro ADME; conditions: human liver microsomes; read-out: Human liver microsome t1/2
[18] = test system: Mice injected with pre-formed alpha-synuclein fibrils; assay: Functional rescue in alpha-synuclein fibril model; type: in vivo
Source text: Injection of pre-formed alpha-synuclein fibrils is known to induce Parkinson's-like disease in mice. […] This effect is believes to be due to the compound blocking the formation of toxic pre-formed-fibril alpha synuclein by inhibiting c-Abl.

[19] = test system: A53T synuclein mice; assay: Functional rescue in mutated alpha-synuclein model; type: in vivo; conditions: A53T mutant alpha-synuclein mice
Source text: The A53T mutant of alpha-synuclein is a clinically identified mutation that leads to hyper aggregation of alpha-synuclein in mice, and recapitulates the symptoms of Parkinson's disease such as dopaminergic neuron loss.
This effect is believed to be due to the compound blocking formation of the toxic form of A53T-alpha-synuclein by inhibiting c-Abl.

[20] = test system: CMT; assay: Inhibition profile at 500 nM: CMT; type: biochemical; conditions: 500 nM test compound; Table 2
Experimental: as §1

[21] = molecular target: JNK1 (Homo sapiens, UniProt P45983); assay: Inhibition profile at 500 nM: JNK1; type: biochemical; conditions: 500 nM test compound; Table 2; read-out: Percent inhibition JNK1
Experimental: as §1

[22] = molecular target: YES (Homo sapiens, UniProt P07947); assay: Inhibition profile at 500 nM: YES; type: biochemical; conditions: 500 nM test compound; Table 2; read-out: Percent inhibition YES
Experimental: as §1

[23] = test system: mice treated with MPTP; conditions: known ATK inhibitors, background statement; cited from earlier work
[24] = test system: animal models of Parkinson's Disease; conditions: literature (J. Neurosci. 31(1); Scientific Reports 4:4874); cited from earlier work

Chain of LCK (P06239 whole entry): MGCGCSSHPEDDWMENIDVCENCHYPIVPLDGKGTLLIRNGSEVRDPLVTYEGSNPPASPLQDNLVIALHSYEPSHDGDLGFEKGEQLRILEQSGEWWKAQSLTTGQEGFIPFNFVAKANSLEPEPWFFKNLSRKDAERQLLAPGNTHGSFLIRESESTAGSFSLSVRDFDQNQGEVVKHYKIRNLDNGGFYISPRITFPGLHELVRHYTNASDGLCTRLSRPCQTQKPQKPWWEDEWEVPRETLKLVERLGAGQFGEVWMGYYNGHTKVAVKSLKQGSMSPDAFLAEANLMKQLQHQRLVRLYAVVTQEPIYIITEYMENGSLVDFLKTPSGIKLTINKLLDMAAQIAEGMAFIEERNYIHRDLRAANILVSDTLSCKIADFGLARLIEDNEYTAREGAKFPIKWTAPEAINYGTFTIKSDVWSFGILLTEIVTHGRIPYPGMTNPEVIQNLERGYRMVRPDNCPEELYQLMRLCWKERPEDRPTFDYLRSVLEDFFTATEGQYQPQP
Chain of PDGFRa (P16234 24-1089): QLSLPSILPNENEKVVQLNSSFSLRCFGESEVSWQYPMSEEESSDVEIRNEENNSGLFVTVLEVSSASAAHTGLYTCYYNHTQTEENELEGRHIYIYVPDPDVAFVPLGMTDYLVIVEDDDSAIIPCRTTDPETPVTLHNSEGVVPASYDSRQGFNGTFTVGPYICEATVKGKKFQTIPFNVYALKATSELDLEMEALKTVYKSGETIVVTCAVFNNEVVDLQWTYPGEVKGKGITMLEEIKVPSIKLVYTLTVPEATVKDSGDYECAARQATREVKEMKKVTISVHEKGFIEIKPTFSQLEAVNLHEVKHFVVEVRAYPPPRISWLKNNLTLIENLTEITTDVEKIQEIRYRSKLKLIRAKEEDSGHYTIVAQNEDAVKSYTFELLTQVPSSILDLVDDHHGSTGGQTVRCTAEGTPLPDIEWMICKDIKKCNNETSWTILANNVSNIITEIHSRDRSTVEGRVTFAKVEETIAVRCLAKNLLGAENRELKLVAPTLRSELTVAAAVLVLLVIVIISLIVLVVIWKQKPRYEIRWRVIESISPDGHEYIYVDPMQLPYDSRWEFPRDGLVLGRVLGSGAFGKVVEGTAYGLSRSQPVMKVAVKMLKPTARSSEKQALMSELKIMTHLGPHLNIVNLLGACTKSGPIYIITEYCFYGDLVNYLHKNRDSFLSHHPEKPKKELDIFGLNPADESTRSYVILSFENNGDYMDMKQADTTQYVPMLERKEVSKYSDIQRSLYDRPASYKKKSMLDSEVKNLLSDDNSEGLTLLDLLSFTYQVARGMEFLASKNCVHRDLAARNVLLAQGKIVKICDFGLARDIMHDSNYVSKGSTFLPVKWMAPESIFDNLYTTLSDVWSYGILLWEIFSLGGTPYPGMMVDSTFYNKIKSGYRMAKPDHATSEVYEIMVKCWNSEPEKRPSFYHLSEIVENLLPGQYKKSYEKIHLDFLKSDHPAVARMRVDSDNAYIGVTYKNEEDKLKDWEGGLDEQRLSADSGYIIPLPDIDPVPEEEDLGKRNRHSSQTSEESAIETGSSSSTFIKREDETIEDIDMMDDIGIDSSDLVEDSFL
Chain of SRC (P12931 whole entry): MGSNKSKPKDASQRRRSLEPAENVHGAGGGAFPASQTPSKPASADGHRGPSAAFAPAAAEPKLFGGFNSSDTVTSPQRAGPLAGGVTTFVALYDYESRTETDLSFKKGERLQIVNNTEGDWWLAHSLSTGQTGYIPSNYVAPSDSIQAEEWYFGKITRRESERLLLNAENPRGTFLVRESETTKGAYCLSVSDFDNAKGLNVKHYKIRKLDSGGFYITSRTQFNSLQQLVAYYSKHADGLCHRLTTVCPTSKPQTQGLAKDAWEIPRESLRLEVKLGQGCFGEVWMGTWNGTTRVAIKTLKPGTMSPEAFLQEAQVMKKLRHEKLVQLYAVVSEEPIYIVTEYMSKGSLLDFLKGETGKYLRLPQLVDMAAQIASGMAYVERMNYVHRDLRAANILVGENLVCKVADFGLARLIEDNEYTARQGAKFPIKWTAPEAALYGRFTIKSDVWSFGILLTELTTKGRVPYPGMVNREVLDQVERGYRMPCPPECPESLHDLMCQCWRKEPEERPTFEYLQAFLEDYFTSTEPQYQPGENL
Chain of FGR (P09769 whole entry): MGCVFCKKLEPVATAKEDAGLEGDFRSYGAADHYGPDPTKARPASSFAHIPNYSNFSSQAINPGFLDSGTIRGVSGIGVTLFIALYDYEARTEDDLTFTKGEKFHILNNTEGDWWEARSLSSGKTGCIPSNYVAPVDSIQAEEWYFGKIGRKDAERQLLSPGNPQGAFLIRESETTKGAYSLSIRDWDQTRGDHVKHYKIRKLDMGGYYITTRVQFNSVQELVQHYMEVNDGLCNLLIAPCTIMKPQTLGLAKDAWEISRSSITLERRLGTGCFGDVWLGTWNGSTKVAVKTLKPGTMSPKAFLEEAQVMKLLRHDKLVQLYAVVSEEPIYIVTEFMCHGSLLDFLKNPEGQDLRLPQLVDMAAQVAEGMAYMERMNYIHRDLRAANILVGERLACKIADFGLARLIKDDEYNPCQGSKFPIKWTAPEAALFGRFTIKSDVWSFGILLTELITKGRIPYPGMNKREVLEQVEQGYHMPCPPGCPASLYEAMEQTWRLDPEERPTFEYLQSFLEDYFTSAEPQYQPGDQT
Chain of FES (P07332 whole entry): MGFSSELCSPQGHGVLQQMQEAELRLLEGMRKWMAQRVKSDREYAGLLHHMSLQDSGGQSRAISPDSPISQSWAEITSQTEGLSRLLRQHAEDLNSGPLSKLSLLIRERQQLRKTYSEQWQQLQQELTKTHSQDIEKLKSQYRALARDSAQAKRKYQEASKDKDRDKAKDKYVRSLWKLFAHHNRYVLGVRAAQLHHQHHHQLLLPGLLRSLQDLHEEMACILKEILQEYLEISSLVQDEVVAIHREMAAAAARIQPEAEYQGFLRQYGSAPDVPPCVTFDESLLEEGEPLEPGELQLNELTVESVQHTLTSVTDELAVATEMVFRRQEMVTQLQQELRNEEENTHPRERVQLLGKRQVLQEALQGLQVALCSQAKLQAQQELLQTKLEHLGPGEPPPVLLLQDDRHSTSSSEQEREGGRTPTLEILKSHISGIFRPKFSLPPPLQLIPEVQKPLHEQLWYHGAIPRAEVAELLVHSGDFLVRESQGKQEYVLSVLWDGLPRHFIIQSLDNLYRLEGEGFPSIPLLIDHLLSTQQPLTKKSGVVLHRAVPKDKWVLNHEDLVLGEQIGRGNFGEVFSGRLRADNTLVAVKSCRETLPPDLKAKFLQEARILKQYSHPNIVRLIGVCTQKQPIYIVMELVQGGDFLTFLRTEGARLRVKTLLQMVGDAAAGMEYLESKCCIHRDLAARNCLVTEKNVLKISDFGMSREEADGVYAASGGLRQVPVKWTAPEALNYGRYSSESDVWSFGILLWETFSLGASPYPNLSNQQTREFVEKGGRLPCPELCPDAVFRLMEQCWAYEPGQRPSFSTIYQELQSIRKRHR
Chain of FYN (P06241 whole entry): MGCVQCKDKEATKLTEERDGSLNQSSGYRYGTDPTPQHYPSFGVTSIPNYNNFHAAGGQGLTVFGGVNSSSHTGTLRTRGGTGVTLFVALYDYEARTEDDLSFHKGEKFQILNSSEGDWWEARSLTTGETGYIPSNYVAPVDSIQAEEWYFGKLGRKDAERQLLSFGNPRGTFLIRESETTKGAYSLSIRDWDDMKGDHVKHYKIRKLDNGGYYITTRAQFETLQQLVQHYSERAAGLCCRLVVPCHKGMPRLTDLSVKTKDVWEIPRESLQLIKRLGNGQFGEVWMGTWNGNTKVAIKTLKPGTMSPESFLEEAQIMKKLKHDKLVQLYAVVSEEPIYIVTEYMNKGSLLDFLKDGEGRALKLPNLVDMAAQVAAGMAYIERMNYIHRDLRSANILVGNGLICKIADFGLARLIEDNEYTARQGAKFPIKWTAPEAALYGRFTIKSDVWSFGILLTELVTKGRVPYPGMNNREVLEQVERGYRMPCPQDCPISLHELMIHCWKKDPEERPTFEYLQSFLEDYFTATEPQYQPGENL
Chain of LYNA (P07948 whole entry): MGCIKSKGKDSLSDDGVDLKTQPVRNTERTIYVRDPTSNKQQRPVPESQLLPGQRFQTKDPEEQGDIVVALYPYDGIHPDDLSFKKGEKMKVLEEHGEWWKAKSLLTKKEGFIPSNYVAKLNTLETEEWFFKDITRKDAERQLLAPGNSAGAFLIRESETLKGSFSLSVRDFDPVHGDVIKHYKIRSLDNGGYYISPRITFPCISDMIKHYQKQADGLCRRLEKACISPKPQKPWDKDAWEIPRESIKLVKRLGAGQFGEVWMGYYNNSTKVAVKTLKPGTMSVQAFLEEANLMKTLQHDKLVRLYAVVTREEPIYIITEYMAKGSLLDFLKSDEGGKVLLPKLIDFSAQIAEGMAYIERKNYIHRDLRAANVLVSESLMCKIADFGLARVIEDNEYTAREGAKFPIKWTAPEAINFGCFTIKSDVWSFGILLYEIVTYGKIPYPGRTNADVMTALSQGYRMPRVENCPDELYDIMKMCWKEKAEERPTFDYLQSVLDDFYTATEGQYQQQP
Chain of JNK2 (P45984 whole entry): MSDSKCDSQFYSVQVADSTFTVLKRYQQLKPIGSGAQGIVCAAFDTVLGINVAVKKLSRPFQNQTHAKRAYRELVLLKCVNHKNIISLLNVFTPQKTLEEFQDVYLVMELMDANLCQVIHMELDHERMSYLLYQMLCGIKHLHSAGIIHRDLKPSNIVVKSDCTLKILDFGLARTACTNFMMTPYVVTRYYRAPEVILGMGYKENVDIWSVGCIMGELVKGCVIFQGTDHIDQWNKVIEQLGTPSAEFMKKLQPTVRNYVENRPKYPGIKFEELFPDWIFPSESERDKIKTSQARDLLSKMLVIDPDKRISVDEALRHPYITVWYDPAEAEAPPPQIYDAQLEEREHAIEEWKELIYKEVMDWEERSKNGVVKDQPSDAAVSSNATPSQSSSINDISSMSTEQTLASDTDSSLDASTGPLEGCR

SMILES: Cc1ccc(NC(=O)c2ccc(CN3CCN(C)CC3)cc2)cc1Nc1nccc(-c2cncc(-c3oncc3C)c2)n1 [Compound 809]
Parkinson's-like disease after pre-formed alpha-synuclein fibrils [18]: fail to exhibit Parkinson's like disease | fraction unbound [14]: 0.143 | AUC(0-t) [15]: 1060 ng·h/mL | Cmax [15]: 170 ng/mL | Tmax [15]: 4 h | Vd [15]: 7.2 L/kg | bioavailability [15]: 24% | clearance [15]: 45 mL/min/kg | half-life [15]: 2.2 h | dopamine levels (protection of dopamine-secreting neurons) [16]: protected dopamine-secreting neurons from degeneration | pole test latency [16]: recovered to a near-normal latency time | half-life [17]: 0.364 h | dopaminergic neuron loss in A53T synuclein mice [19]: fail to display the characteristics of dopaminergic neuron loss

SMILES: Cc1cn(-c2cc(NC(=O)c3ccc(C)c(Nc4nccc(-c5cccnc5)n4)c3)cc(C(F)(F)F)c2)cn1 [nilotinib]
neuroprotection in the acute MPTP-induced model of PD [23]: provide neuroprotection | effectiveness in animal models of Parkinson's Disease [24]: appear effective

More lines, main results first:

inhibition at 0.5 µM ([1]; Table 1): 101% | inhibition at 0.5 µM ([2]; Table 1): 59% | inhibition at 0.5 µM ([3]; Table 1): 93% | inhibition at 0.5 µM ([4]; Table 1): 82% | inhibition at 0.5 µM ([5]; Table 1): 28% | inhibition at 0.5 µM ([6]; Table 1): 28% | inhibition at 0.5 µM ([7]; Table 1, read-out: Percent inhibition ARG/Abl2): 87% | inhibition at 0.5 µM [8]: 91% | inhibition at 0.5 µM ([9]; Table 1): 51% | inhibition at 0.5 µM ([10]; Table 1): 1.7% | inhibition at 0.5 µM ([11]; Table 1): 69% | inhibition at 0.5 µM ([12]; Table 1): 95% | inhibition at 0.5 µM [13]: 99%
SMILES: Cc1ccc(NC(=O)c2ccc(CN3CCN(C)CC3)cc2)cc1Nc1nccc(-c2cncc(-c3ccn[nH]3)c2)n1 [Compound 107]

fraction unbound [14]: 0.141 | AUC(0-t) [15]: 1650 ± 1080 ng·h/mL | Cmax [15]: 225 ± 83.8 ng/mL | Tmax [15]: 5.3 ± 1.2 h | Vd [15]: 6.5 ± 0.96 L/kg | bioavailability [15]: 32% | clearance [15]: 33.3 mL/min/kg | half-life [15]: 3.1 h | half-life [17]: 0.292 h
SMILES: Cc1cc(-c2cncc(-c3ccnc(Nc4cc(NC(=O)c5ccc(CN6CCN(C)CC6)cc5)ccc4C)n3)c2)on1 [Compound 207]
dopamine levels (protection of dopamine-secreting neurons) [16]: protected dopamine-secreting neurons from degeneration | pole test latency [16]: recovered to a near-normal latency time

inhibition at 0.5 µM ([1]; Table 2): 98% | inhibition at 0.5 µM ([2]; Table 2): 99% | inhibition at 0.5 µM ([3]; Table 2): 108% | inhibition at 0.5 µM ([4]; Table 2): 81% | inhibition at 0.5 µM ([5]; Table 2): 19% | inhibition at 0.5 µM ([6]; Table 2): 45% | inhibition at 0.5 µM ([7]; Table 2, read-out: Percent inhibition Abl2): 89% | inhibition at 0.5 µM ([9]; Table 2): 61% | inhibition at 0.5 µM ([10]; Table 2): 30% | inhibition at 0.5 µM [21]: 35% | inhibition at 0.5 µM ([11]; Table 2): 90% | inhibition at 0.5 µM [22]: 63% | inhibition at 0.5 µM ([12]; Table 2): 97%
SMILES: Cc1ccc(NC(=O)c2ccc(CN3CCN(C)CC3)cc2)cc1Nc1nccc(-c2cncc(-c3cnn(C)c3)c2)n1 [Compound 8300]
Percent inhibition CMT [20]: 88%
